{
  "source": "patent US20040009594A1",
  "about": "“Method for amplifying natural killer t cells” (priority 2000, published 2004)",
  "type_in_all_cases": "cell-based, human",
  "key": {"[1]": {"test_system": "Vα24^+ NKT cells from PBMCs", "test": "Expansion of Vα24+ NKT cells from normal PBMCs by α-GalCer (flow cytometry)", "protocol": "(§1) Buffy coat (crude PBMCs), prepared from 400 ml of whole blood drawn from a healthy person, was supplied by the Japanese Red Cross Blood Center. A cell fraction containing PBSCs (crude G-PBSCs) was obtained from patients undergone chemotherapy followed by a dose of 100 to 250 μg/body/day G-CSF subcutaneously for 6 to 10 days (Table 1) by performing apheresis between 2 and 24 hours after the last injection of G-CSF with COBE Spectra™ Cell Separator (LAKE WOOD, Colo. USA 80215) (Hematopoietic Stem Cells: Biology and Therapeutic Applications. Levit DJ, Mertelsmann R(eds), Marcel Dekker, Inc., New York, 1995, 611-630).\n(§2) From the obtained crude PBMCs and crude G-PBSCs, mononuclear cell fractions (referred to as “PBMCs” and “G-PBSCs”, respectively) were prepared using Lympho-sepal density-gradient medium (Immuno-Biological Laboratories Gunma, Japan).\n(§3) PBMCs and G-PBSCs obtained in (1) were cultured with RPMI-1640 supplemented with 2 mM L-glutamine, 1% pyruvate, 2% bicarbonate, 100 U/ml penicillin, 100 U/ml streptomycin (GIBCO BRL) in the presence of 100 U/ml IL-2 and 100 ng/ml of α-GlyCer. Cells were incubated in a water-vapor-saturated atmosphere containing 5% CO2 gas at 37° C. The cell number and characteristics of these cultured cells were examined on day 0 (d0) and day 12 (d12). As α-GlyCer, (2S,3S,4R)-1-O-(α-D-galactopyranosyl)-N-hexacosanoyl-2-amino-1,3,4-octadecanetriol; referred to as “α-GalCer”) prepared by Kirin Beer Kabushiki Kaisha was used.\n(§4) Flow cytometry of the cultured cells was performed using a FACScan cytometer (Becton Dickinson, Sunyvale, Calif.) as follows. Fluorescein isothiocynate (FITC)-conjugated anti-Vα24 (C15), phycoerythrin (PE)-conjugated anti-Vβ11(C21), PE-conjugated anti-CD3, PE-conjugated anti-CD56, PE-conjugated anti-DC83 and PE-conjugated anti-CD8 were obtained from Immunotech (Marseilelles Cedex, France). FITC-conjugated PE-conjugated anti-CD161, PE-conjugated anti-IL-2Rβ, PE-conjugated anti-HLA-DR and PE-conjugated anti-CD4 were obtained from Becton Dickinson. PE-conjugated anti-CD86 was obtained from Pharmingen (San Diego, Calif.). PE-conjugated anti-CD57 was obtained from SIGMA (Saint Louis, Mo.) and used as iso-type controls. Cultured cells were harvested and resuspended in 10% fetal calf serum (FCS)-RPMI1620 medium at a density of 1×10^5/ml. After centrifugation for 3 min at 2000 rpm using MRX-150 high speed refrigerated micro centrifuges (TOMY SEIKO CO., LTD. Tokyo, Japan), the cells were resuspended in 50 μl of PBS containing 1 μl of antibodies described above and incubated for 30 min at 4° C. The cells were then washed twice with PBS, resuspended in PBS and stored at 4° C. until analysis. Data are shown as FSC, SSC, FL-1 indicating Vα24 or CD4, and FL-2 indicating Vβ11, CD8, CD3."}, "[2]": {"test_system": "Vα24^+ NKT cells from G-PBSCs", "test": "Expansion of Vα24+ NKT cells from G-PBSCs by α-GalCer (flow cytometry)", "protocol": "as §1, §2, §3, §4"}, "[3]": {"test_system": "Vα24^+ NKT cells from G-PBSCs", "test": "Expansion of Vα24+ NKT cells from G-PBSCs by α-GalCer (flow cytometry)", "settings": "IL-2 and α-GalCer (FIG. 5)"}, "[4]": {"settings": "normal PBMCs, 100 ng/ml α-GalCer + 100 U/ml IL-2, day 12, one line per donor (No. 1-5)"}, "[5]": {"settings": "G-PBSCs of cancer patients, 100 ng/ml α-GalCer + 100 U/ml IL-2, day 12, one line per patient (No. 6-10)"}},
  "note": "Several values for one entry are separate records, joined by “and”; a condition that tells them apart may be missing. Equal values may be shown once. Entries after “also recorded” stand apart in the source; their conditions may differ.",
  "data": [
    {"smiles": "CCCCCCCCCCCCCCCCCCCCCCCCCC(=O)N[C@@H](CO[C@H]1O[C@H](CO)[C@H](O)[C@H](O)[C@H]1O)[C@H](O)[C@H](O)CCCCCCCCCCCCCC", "note": "[α-GalCer, (2S,3S,4R)-1-O-(α-D-galactopyranosyl)-N-hexacosanoyl-2-amino-1,3,4-octadecanetriol]", "values": [
      {"measurement": "course of number of Vα24+ NKT cells after day 12", "setting": "[1]; PBMCs, IL-2 and α-GalCer (FIG. 5)", "value": "gradually decrease after day 12"},
      {"measurement": "D12 NKT % α-GalCer (+)", "setting": "[1]; [4]", "value": "0.18% and 6.58% and 0.19% and 0.3% and 0.66%"},
      {"measurement": "D12 NKT (cell number) α-GalCer (+)", "setting": "[1]; [4]", "value": "2376 and 24346 and 9500 and 18300 and 20328"},
      {"measurement": "α-GalCer (+)/(−)", "setting": "[1]; normal PBMCs, day 12, with vs without α-GalCer, one line per donor (No. 1-5)", "value": "2.2 and 15.5 and 1.0 and 4.1 and 4.5"},
      {"measurement": "d12/d0", "setting": "[1]; normal PBMCs, with α-GalCer, day 12 vs day 0, one line per donor (No. 1-5)", "value": "1.6 and 4.1 (2×) and 1.4 and 6.1"},
      {"measurement": "D12 NKT % α-GalCer (+)", "setting": "[2]; [5]", "value": "2.05% and 8.49% and 4.73% and 3.21% and 22.6%"},
      {"measurement": "D12 NKT (cell number) α-GalCer (+)", "setting": "[2]; [5]", "value": "(51660); also recorded: (314130); also recorded: (520300); also recorded: (64200); also recorded: (1414375)"},
      {"measurement": "α-GalCer (+)/(−)", "setting": "[2]; G-PBSCs, day 12, with vs without α-GalCer, one line per patient (No. 6-10)", "value": "205.0 and 196.9 and 101.6 and 114.6 and 673.5"},
      {"measurement": "d12/d0", "setting": "[2]; G-PBSCs, with α-GalCer, day 12 vs day 0, one line per patient (No. 6-10)", "value": "34.4 and 314.1 and 104.1 and 32.1 and 1414.4"},
      {"measurement": "amplification in G-PBSCs relative to PBMCs", "setting": "[2]; day 12, IL-2 and α-GalCer", "value": "at least 10 fold"},
      {"measurement": "course of number of Vα24+ NKT cells after day 12", "setting": "[3]", "value": "continue to expand up to day 30 of culture"}
    ]}
  ]
}
